Results taken from ChEMBL document CHEMBL5325512, “Sub-stoichiometric Modulation of Viral Targets-Potent Antiviral Agents That Exploit Target Vulnerability” (ACS Med Chem Lett, 2023).
pEC50: −log10 of the molar value.

Tests used:
[1] = test system: Human immunodeficiency virus 1; experiment: Antiviral activity against wild type HIV 1 NL4-3; assay type: functional, organism-based; conditions: Human immunodeficiency virus 1, NL4-3
[2] = test system: Human immunodeficiency virus 1; experiment: Antiviral activity against HIV1 harbouring T332S/V362I/prR41G mutant; assay type: functional, organism-based
[3] = test system: Human immunodeficiency virus 1; experiment: Antiviral activity against wild type HIV 1 in presence of human serum albumin; assay type: functional, organism-based
[4] = test system: Human immunodeficiency virus 1; experiment: Antiviral activity against HIV 1 harbouring deltaV370 mutant; assay type: functional, organism-based
[5] = test system: Human immunodeficiency virus 1; experiment: Antiviral activity against HIV 1 harbouring V362I/V370 mutant; assay type: functional, organism-based
[6] = test system: Human immunodeficiency virus 1; experiment: Antiviral activity against HIV 1 harbouring V370A mutant; assay type: functional, organism-based
[7] = molecular target: Human immunodeficiency virus type 1 Gag protein (Human immunodeficiency virus 1) (UniProt Q77YG1); experiment: Binding affinity to HIV1 wild type Gag assessed as dissociation half life
[8] = test system: Gag-Pol polyprotein (Human immunodeficiency virus type 1 group M subtype B (isolate HXB2)(HIV-1)), P04585 [A364V]; experiment: Binding affinity to HIV1 Gag A364V mutant assessed as dissociation half life; conditions: Human immunodeficiency virus 1
[9] = test system: Human immunodeficiency virus 1; experiment: Antiviral activity against HIV 1 harbouring R361K/V362I/L363M mutant; assay type: functional, organism-based
[10] = test system: Human immunodeficiency virus 1; experiment: Antiviral activity against wild type HIV 1; assay type: functional, organism-based
[11] = Selectivity ratio of EC50 for antiviral activity against HIV1 harbouring V370A mutant to EC50 for antiviral activity against wild type HIV1; assay type: functional, Human immunodeficiency virus 1
[12] = Selectivity ratio of EC50 for antiviral activity against HIV1 harbouring R361K/V362I/L363M mutant to EC50 for antiviral activity wild type HIV1; assay type: functional, Human immunodeficiency virus 1
[13] = Selectivity ratio of EC50 for antiviral activity against HIV1 harbouring A364V mutant to EC50 for antiviral activity wild type HIV1; assay type: functional, Human immunodeficiency virus 1
[14] = Selectivity ratio of EC50 for antiviral activity against HIV1 harbouring T332S/V362I/prR41G mutant to EC50 for antiviral activity wild type HIV1; assay type: functional, Human immunodeficiency virus 1
[15] = test system: Human immunodeficiency virus 1; experiment: Binding affinity to HIV1 Gag V362I/V370A mutant assessed as dissociation half life
[16] = Selectivity ratio of EC50 for antiviral activity against HIV1 harbouring A362T/V362I/V370A mutant to EC50 for antiviral activity wild type HIV1; assay type: functional, Human immunodeficiency virus 1
[17] = Selectivity ratio of EC50 for antiviral activity against HIV1 harbouring V362I/V370A mutant to EC50 for antiviral activity against wild type HIV1; assay type: functional, Human immunodeficiency virus 1
[18] = test system: Human immunodeficiency virus 1; experiment: Antiviral activity against HIV 1 harbouring A362T/V362I/V370 mutant; assay type: functional, organism-based
[19] = test system: Human immunodeficiency virus 1; experiment: Antiviral activity against HIV 1 harbouring A364V mutant; assay type: functional, organism-based
[20] = test system: Human immunodeficiency virus 1; experiment: Binding affinity to HIV1 Gag deltaV370A mutant assessed as dissociation half life
[21] = test system: Human immunodeficiency virus 1; experiment: Binding affinity to HIV1 Gag V370A/deltaT371 mutant assessed as dissociation half life
[22] = Selectivity ratio of EC50 for antiviral activity against HIV1 harbouring deltaV370A mutant to EC50 for antiviral activity against wild type HIV1; assay type: functional, Human immunodeficiency virus 1
[23] = test system: Human immunodeficiency virus 1; experiment: Antiviral activity against HIV1 infected in human assessed as reduction in Plasma viremia by measuring HIV1 RNA at 140 mg/kg after 7 days; assay type: functional; conditions: time 7 day
[24] = test system: Human immunodeficiency virus 1; experiment: Antiviral activity against HIV1 infected in human assessed as reduction in Plasma viremia by measuring HIV1 RNA at 40 mg/kg after 7 days; assay type: functional; conditions: time 7 day
[25] = test system: Gag-Pol polyprotein (Human immunodeficiency virus type 1 group M subtype B (isolate HXB2)(HIV-1)), P04585 [V362I]; experiment: Binding affinity to HIV1 Gag V362I mutant assessed as dissociation half life; conditions: Human immunodeficiency virus 1
[26] = test system: Human immunodeficiency virus 1; experiment: Antiviral activity against HIV1 infected in human assessed as reduction in Plasma viremia by measuring HIV1 RNA at 200 mg/kg after 10 days; assay type: functional; conditions: time 10 day
[27] = test system: Gag-Pol polyprotein (Human immunodeficiency virus type 1 group M subtype B (isolate HXB2)(HIV-1)), P04585 [V370A]; experiment: Binding affinity to HIV1 Gag V370A mutant assessed as dissociation half life; conditions: Human immunodeficiency virus 1
[28] = test system: Human immunodeficiency virus 1; experiment: Antiviral activity against HIV1 infected in human assessed as reduction in Plasma viremia by measuring HIV1 RNA at 10 mg/kg after 10 days; assay type: functional; conditions: time 10 day
[29] = test system: Human immunodeficiency virus 1; experiment: Antiviral activity against HIV1 infected in human assessed as reduction in Plasma viremia by measuring HIV1 RNA at 80 mg/kg after 7 days; assay type: functional; conditions: time 7 day

## C=C(C)[C@@H]1CC[C@]2(NCCN3CCS(=O)(=O)CC3)CC[C@]3(C)[C@H](CC[C@@H]4[C@@]5(C)CC=C(C6=CC[C@@H](C(=O)O)CC6)C(C)(C)[C@@H]5CC[C@]43C)[C@@H]12
[1]
  pEC50: 8.52
[2]
  pEC50: 7.72
[3]
  pEC50: 8.30
[4]
  pEC50: 8.52
[5]
  pEC50: 7.82

## C=C(C)[C@@H]1CC[C@]2(NCCN3CCS(=O)(=O)CC3)CC[C@]3(C)[C@H](CC[C@@H]4[C@@]5(C)CC=C(C6=CCC(C(=O)O)CC6)C(C)(C)[C@@H]5CC[C@]43C)[C@@H]12 (stereo partly specified)
[1]
  pEC50: 9.22
[6]
  pEC50: 9.15
[3]
  pEC50: 8.05
[4]
  pEC50: 8.70

## C=C(C)[C@@H]1CC[C@]2(NCCN3CCS(=O)(=O)CC3)CC[C@]3(C)[C@H](CC[C@@H]4[C@@]5(C)CC=C(c6ccc(C(=O)O)cc6)C(C)(C)[C@@H]5CC[C@]43C)[C@@H]12 [BMS-955176]
[7]
  T1/2: 0.85 h
[8]
  T1/2: < 1 min
[9]
  pEC50: 6.26
[10]
  pEC50: 8.30
[11]
  Ratio EC50: 1.2
[12]
  Ratio EC50: 110
[2]
  pEC50: 6.15
[13]
  Ratio EC50: >600
[14]
  Ratio EC50: 141
[15]
  T1/2: 0.583 h
[16]
  Ratio EC50: >600
[6]
  pEC50: 8.22
[17]
  Ratio EC50: >600
[18]
  pEC50: < 5.52
[19]
  pEC50: < 5.52
[20]
  T1/2: 0.767 h
[21]
  T1/2: 0.8 h
[22]
  Ratio EC50: 1.2
[4]
  pEC50: 8.22
[5]
  pEC50: < 5.52

## C=C(C)[C@@H]1CC[C@]2(NCCN3CCS(=O)(=O)CC3)CC[C@]3(C)[C@H](CC[C@@H]4[C@@]5(C)CC=C(C6=CC[C@@](CF)(C(=O)O)CC6)C(C)(C)[C@@H]5CC[C@]43C)[C@@H]12 [FIPRAVIRIMAT]
[7]
  T1/2: 6.02 h
[8]
  T1/2: < 1 min
[23]
  Activity: -1.5
[9]
  pEC50: 8.52
[24]
  Activity: -1.2
[10]
  pEC50: 8.52
[11]
  Ratio EC50: 0.7
[12]
  Ratio EC50: 1
[2]
  pEC50: 8.15
[25]
  T1/2: 4.48 h
[13]
  Ratio EC50: 91
[14]
  Ratio EC50: 2.3
[15]
  T1/2: 3.78 h
[16]
  Ratio EC50: 8.7
[6]
  pEC50: 8.70
[17]
  Ratio EC50: 1
[18]
  pEC50: 7.59
[26]
  Activity: -2
[19]
  pEC50: 6.56
[20]
  T1/2: 5.25 h
[21]
  T1/2: 7.65 h
[27]
  T1/2: 7.23 h
[22]
  Ratio EC50: 1
[4]
  pEC50: 8.52
[5]
  pEC50: 8.52
[28]
  Activity: -0.4
[29]
  Activity: -1
